Experimental findings from article PMC11721672, “Design, Structure–Activity Relationships, and Computational Modeling Studies of a Series of α-Helix Biased, Ultra-Short Glucagon-like Peptide-1 Receptor Agonists” (Molecules, 2024) are described below.

This experiment has as its target T1, hGLP1 receptor (Homo sapiens, UniProt P43220).
T1 construct: expressed in transfected cells; host or cells: HEK (human embryonic kidney) cells co-expressing hGLP1 receptor and CRE-Luciferase
Description: GLP-1 receptor agonism assay (HTRF cAMP, HEK cells co-expressing hGLP1 receptor and CRE-Luciferase). The class given is cell-based. Particulars: for Emax: HEK293, Table 6 potency profile; for EC50: Table 1, Phe6 modifications, 0% HSA, average of two independent experiments in triplicate (RXL-3039 tested once), read-out: cAMP EC50. As for the experimental part: Human embryonic kidney cells (HEK) co-expressing the hGLP1 receptor and CRE-Luciferase construct were used to determine agonist potency in this assay. The cells were thawed briefly at 37 °C, transferred to a sterile tube, and re-suspended in complete media at 37 °C. Cells were centrifuged at 1000 rpm for 5 min and collected; the cells were then re-suspended in an assay buffer consisting of Dulbecco’s phosphate-buffered saline (DPBS, GIBCO) with 500 μM of the phosphodiesterase inhibitor 3-isobutyl-1-methylxanthine (IBMX). The assay medium had 0% serum albumin, as specified in Table 1, Table 2, Table 3 and Table 4. The optimal cell density was determined to be 1000 cells/well. Cells were added to wells in 384-well plates containing appropriate pre-prepared dilutions of compounds (test peptides or reference compound exendin-4), sealed, and incubated with CO2 for 30 min. Test peptide solutions were diluted from 10 mM stock solutions to be used in two separate runs (performed in triplicate) from a maximal concentration of 1.0 μM, with 11 concentrations tested for each peptide using serial 1:3 dilution from this maximal concentration. […] The agonist assay was a homogeneous time-resolved fluorescence (HTRF) assay (Cisbio). Following incubation of the cells for 30 min with test or reference peptides, 5 μL of the cAMP acceptor cAMP-d2, prepared previously as a working solution from frozen stock (1:20 dilution), was added to each well of the assay plate along with 5 μL of anti-cAMP antibody-cryptate working solution (diluted 1:20 from frozen stock). The wells were incubated for 1 h at room temperature, and fluorescence was then read at 665 and 615 nm with an Envision reader with a TRF laser. Data were saved and analyzed using Prism software (GraphPad). Concentration–response analysis was performed using 4-parameter logistic fits of the resulting data, and EC50 values were obtained for each test and reference compound.

T1 sequence (P43220 24-463): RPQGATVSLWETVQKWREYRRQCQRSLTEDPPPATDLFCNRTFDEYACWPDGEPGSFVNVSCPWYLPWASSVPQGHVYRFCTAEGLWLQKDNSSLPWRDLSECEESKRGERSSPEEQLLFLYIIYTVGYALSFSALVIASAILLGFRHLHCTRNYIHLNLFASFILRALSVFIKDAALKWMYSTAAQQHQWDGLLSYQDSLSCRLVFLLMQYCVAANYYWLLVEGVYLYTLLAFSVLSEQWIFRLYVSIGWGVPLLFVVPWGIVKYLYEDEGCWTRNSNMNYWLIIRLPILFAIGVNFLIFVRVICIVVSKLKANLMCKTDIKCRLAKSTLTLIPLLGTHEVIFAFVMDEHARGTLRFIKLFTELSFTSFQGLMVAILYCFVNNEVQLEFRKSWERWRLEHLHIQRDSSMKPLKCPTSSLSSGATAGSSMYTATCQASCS

A word on the Emax: it is the size of the effect at its maximum, as opposed to the concentration needed. In general, EC50 refers to the concentration giving half of the maximal effect. As to `C[C@@H](O)[C@H](NC(=O)CNC(=O)[C@H](CCC(=O)O)NC(=O)C(C)(C)NC(=O)[C@@H](N)Cc1c[nH]cn1)C(=O)N[C@@H](Cc1ccccc1C(F)(F)F)C(=O)N[C@H](C(=O)N[C@@H](CO)C(=O)N[C@@H](CC(=O)O)C(=O)N[C@@H](Cc1ccc(-c2ccccc2)cc1)C(=O)N[C@@H](Cc1ccc(-c2ccccc2)cc1)C(N)=O)[C@@H](C)O` [RXL-3012, His-Aib-Glu-Gly-Thr-Phe(2-CF3)-Thr-Ser-Asp-Bip-Bip-NH2], the Emax was 99.3% and the EC50 stood at 13.9 nM.

For `Cc1ccccc1C[C@H](NC(=O)[C@@H](NC(=O)CNC(=O)[C@H](CCC(=O)O)NC(=O)C(C)(C)NC(=O)[C@@H](N)Cc1c[nH]cn1)[C@@H](C)O)C(=O)N[C@H](C(=O)N[C@@H](CO)C(=O)N[C@@H](CC(=O)O)C(=O)N[C@@H](Cc1ccc(-c2ccccc2)cc1)C(=O)N[C@@H](Cc1ccc(-c2ccccc2)cc1)C(N)=O)[C@@H](C)O` [RXL-3013, His-Aib-Glu-Gly-Thr-Phe(2-CH3)-Thr-Ser-Asp-Bip-Bip-NH2], the Emax was 98.6% and the EC50 was 2.1 nM.

On to `C[C@@H](O)[C@H](NC(=O)CNC(=O)[C@H](CCC(=O)O)NC(=O)C(C)(C)NC(=O)[C@@H](N)Cc1c[nH]cn1)C(=O)N[C@@H](Cc1ccccc1[N+](=O)[O-])C(=O)N[C@H](C(=O)N[C@@H](CO)C(=O)N[C@@H](CC(=O)O)C(=O)N[C@@H](Cc1ccc(-c2ccccc2)cc1)C(=O)N[C@@H](Cc1ccc(-c2ccccc2)cc1)C(N)=O)[C@@H](C)O` [RXL-3014, His-Aib-Glu-Gly-Thr-Phe(2-NO2)-Thr-Ser-Asp-Bip-Bip-NH2], for which the Emax came to 104% and the EC50 came out at 1.1 nM.

On to `C[C@@H](O)[C@H](NC(=O)CNC(=O)[C@H](CCC(=O)O)NC(=O)C(C)(C)NC(=O)[C@@H](N)Cc1c[nH]cn1)C(=O)N[C@@H](Cc1ccccc1C#N)C(=O)N[C@H](C(=O)N[C@@H](CO)C(=O)N[C@@H](CC(=O)O)C(=O)N[C@@H](Cc1ccc(-c2ccccc2)cc1)C(=O)N[C@@H](Cc1ccc(-c2ccccc2)cc1)C(N)=O)[C@@H](C)O` [RXL-3015, His-Aib-Glu-Gly-Thr-Phe(2-CN)-Thr-Ser-Asp-Bip-Bip-NH2], for which the Emax is 101% and the EC50 worked out at 7.7 nM.

With `C[C@@H](O)[C@H](NC(=O)CNC(=O)[C@H](CCC(=O)O)NC(=O)C(C)(C)NC(=O)[C@@H](N)Cc1c[nH]cn1)C(=O)N[C@@H](Cc1cccc(C(F)(F)F)c1)C(=O)N[C@H](C(=O)N[C@@H](CO)C(=O)N[C@@H](CC(=O)O)C(=O)N[C@@H](Cc1ccc(-c2ccccc2)cc1)C(=O)N[C@@H](Cc1ccc(-c2ccccc2)cc1)C(N)=O)[C@@H](C)O` [RXL-3016, His-Aib-Glu-Gly-Thr-Phe(3-CF3)-Thr-Ser-Asp-Bip-Bip-NH2], the Emax was found to be 109% and the EC50 amounted to 13.9 nM.

For `C[C@@H](O)[C@H](NC(=O)CNC(=O)[C@H](CCC(=O)O)NC(=O)C(C)(C)NC(=O)[C@@H](N)Cc1c[nH]cn1)C(=O)N[C@@H](Cc1cc(F)c(F)c(F)c1)C(=O)N[C@H](C(=O)N[C@@H](CO)C(=O)N[C@@H](CC(=O)O)C(=O)N[C@@H](Cc1ccc(-c2ccccc2)cc1)C(=O)N[C@@H](Cc1ccc(-c2ccccc2)cc1)C(N)=O)[C@@H](C)O` [RXL-3017, His-Aib-Glu-Gly-Thr-Phe(3,4,5-F)-Thr-Ser-Asp-Bip-Bip-NH2], the Emax came to 113% and the EC50 was 7.2 nM.

Turning to `C[C@@H](O)[C@H](NC(=O)CNC(=O)[C@H](CCC(=O)O)NC(=O)C(C)(C)NC(=O)[C@@H](N)Cc1c[nH]cn1)C(=O)N[C@@H](Cc1c(F)c(F)c(F)c(F)c1F)C(=O)N[C@H](C(=O)N[C@@H](CO)C(=O)N[C@@H](CC(=O)O)C(=O)N[C@@H](Cc1ccc(-c2ccccc2)cc1)C(=O)N[C@@H](Cc1ccc(-c2ccccc2)cc1)C(N)=O)[C@@H](C)O` [RXL-3018, His-Aib-Glu-Gly-Thr-Phe(2,3,4,5,6-F)-Thr-Ser-Asp-Bip-Bip-NH2], the Emax was 102% and the EC50 is 0.3 nM. Moreover, the “GLP-1R agonist potency relative to RXL-3000” value (versus RXL-3000) is on record as “threefold less potent”.
